Among the data in US11292791B2 (priority 2017, dated 2022) are IC50 values, retold here.

A word on the IC50: it is the midpoint of a concentration-inhibition curve.

In the experiment the target is BRD4 (Homo sapiens (Human), UniProt O60885). The note with it: read-out: BRD4 IC50 (μM gmean).
Consider `COC(=O)N1c2ccc3c(nc(Cc4cccc(Cl)c4)n3[C@@H]3CCC[C@@H](C(=O)O)C3)c2CC[C@@H]1C` [Example 616], for which the IC50 was in the range of 1 to 1000 µM.
Next, `COC(=O)N1c2ccc3c(nc(C4(n5cc(Cl)cn5)CC4)n3[C@H]3CC[C@H](C(=O)O)CC3)c2CC[C@@H]1C` [Example 617]: 1 to 1000 µM; `COC(=O)N1c2ccc3c(nc(Cc4ccc(OC(F)F)nc4)n3[C@@H]3CCC[C@@H](C(=O)O)C3)c2CC[C@@H]1C` [Example 619]: 1 to 1000 µM; `COC(=O)N1c2ccc3c(nc(CC(C(=O)O)c4ccc(C5CC5)cc4)n3C3CCCOC3)c2CC[C@@H]1C` (stereo partly shown) [Example 620]: 1 to 1000 µM.
The figure for `COC(=O)N1c2ccc3c(nc(C(C)CC4CCOCC4)n3C3CCCC(C(=O)O)C3)c2CC[C@@H]1C` (stereo partly shown) [Example 622] is 1 to 1000 µM.
As for `COC(=O)N1c2ccc3c(nc(C(O)C4CCCCC4)n3C3CCCC(C(=O)O)C3)c2CC[C@@H]1C` (stereo partly shown) [Example 625], the IC50 was in the range of 1 to 1000 µM.
As to `COC(=O)N1c2ccc3c(nc(C(C)Cn4cccn4)n3C3CCC(C(=O)O)CC3)c2CC[C@@H]1C` (stereo partly shown) [Example 627], the IC50 was 1 to 1000 µM.
Next, `COC(=O)N1c2ccc3c(nc(CCn4cc(Cl)cn4)n3[C@@H]3CCC[C@@H](C(=O)O)C3)c2CC[C@@H]1C` [Example 628]: 1 to 1000 µM; `COC(=O)N1c2ccc3c(nc(CC(C(=O)O)c4ccc(C(F)F)cc4)n3C3COCC(F)(F)C3)c2CC[C@@H]1C` (stereo partly shown) [Example 629]: 1 to 1000 µM.
For `COC(=O)N1c2ccc3c(nc(CC(C(=O)O)c4ccccc4)n3C3CCCC(OC)C3)c2CC[C@@H]1C` (stereo partly shown) [Example 632], the IC50 lay in the range of 1 to 1000 µM.
Next, `COC(=O)N1c2ccc3c(nc(COc4ccccc4)n3[C@H]3CC[C@H](C(=O)O)CC3)c2CC[C@@H]1C` [Example 633]: 1 to 1000 µM.
Next, `COC(=O)N1c2ccc3c(nc(CN4CCC5(CCC5)CC4=O)n3[C@@H]3CCC[C@@H](C(=O)O)C3)c2CC[C@@H]1C` [Example 634]: 1 to 1000 µM.
Next, `COC(=O)N1c2ccc3c(nc(C(O)c4cc5c(cn4)OCC5)n3C3CCCC(C(=O)O)C3)c2CC[C@@H]1C` (stereo partly shown) [Example 636]: 1 to 1000 µM.
Regarding `COC(=O)N1c2ccc3c(nc(Cc4ccc(NC(C)=O)c(F)c4)n3[C@H]3CC[C@H](C(=O)O)CC3)c2CC[C@@H]1C` [Example 639], the IC50 fell in the range of 1 to 1000 µM.
The figure for `COC(=O)N1c2ccc3c(nc(Cc4ccc(OC)c(OC)c4)n3[C@@H]3CCC[C@@H](C(=O)O)C3)c2CC[C@@H]1C` [Example 641] is 1 to 1000 µM; for `COC(=O)N1c2ccc3c(nc(Cn4cc(Cl)cn4)n3[C@@H]3CCC[C@@H](C(=O)O)C3)c2CC[C@@H]1C` [Example 643] it is 1 to 1000 µM; for `COC(=O)N1c2ccc3c(nc(CC(C(=O)O)c4cccc(C)c4)n3C3CCCOC3)c2CC[C@@H]1C` (stereo partly shown) [Example 644] it is 1 to 1000 µM.
Turning to `COC(=O)N1c2ccc3c(nc(Cc4cncc(Cl)n4)n3[C@@H]3CCC[C@@H](C(=O)O)C3)c2CC[C@@H]1C` [Example 645], the IC50 was in the range of 1 to 1000 µM.
With `COC(=O)N1c2ccc3c(nc(C(C)(C)c4ccccc4)n3[C@H]3CC[C@H](C(=O)O)CC3)c2CC[C@@H]1C` [Example 646], the IC50 is 1 to 1000 µM.
The figure for `COC(=O)N1c2ccc3c(nc(CCC4CCOCC4)n3[C@@H]3CCC[C@@H](C(=O)O)C3)c2CC[C@@H]1C` [Example 648] is 1 to 1000 µM; for `COC(=O)N1c2ccc3c(nc(C(C)Cn4cc(Cl)cn4)n3C3CCS(=O)(=O)C3)c2CC[C@@H]1C` (stereo partly shown) [Example 651] it is 1 to 1000 µM; for `COC(=O)N1c2ccc3c(nc(C(C)Cn4cc(C)cn4)n3C3CCC(C(=O)O)CC3)c2CC[C@@H]1C` (stereo partly shown) [Example 655] it is 1 to 1000 µM.
Next, `COC(=O)N1c2ccc3c(nc(Cc4cc(Cl)cc(OC)c4)n3[C@H]3CC[C@H](C(=O)O)CC3)c2CC[C@@H]1C` [Example 656]: 1 to 1000 µM; `COC(=O)N1c2ccc3c(nc(Cc4cccc(F)c4OC)n3[C@H]3CC[C@H](C(=O)O)CC3)c2CC[C@@H]1C` [Example 661]: 1 to 1000 µM.
The figure for `COC(=O)N1c2ccc3c(nc(Cc4ccc(Cl)cn4)n3[C@@H]3CCC[C@@H](C(=O)O)C3)c2CC[C@@H]1C` [Example 663] is 1 to 1000 µM.
Consider `COC(=O)N1c2ccc3c(nc(Cc4ccc(N5CCCC5=O)cc4)n3[C@H]3CC[C@H](C(=O)O)CC3)c2CC[C@@H]1C` [Example 664], for which the IC50 lay in the range of 1 to 1000 µM.
The figure for `COC(=O)N1c2ccc3c(nc(Cc4cncc(C5CC5)n4)n3[C@@H]3CCC[C@@H](C(=O)O)C3)c2CC[C@@H]1C` [Example 665] is 1 to 1000 µM; for `COC(=O)N1c2ccc3c(nc(C(CO)c4ccccc4)n3C3CCCC(C(=O)O)C3)c2CC[C@@H]1C` (stereo partly shown) [Example 668] it is 1 to 1000 µM; for `COC(=O)N1c2ccc3c(nc(Cc4cnc(Cl)cn4)n3[C@@H]3CCC[C@@H](C(=O)O)C3)c2CC[C@@H]1C` [Example 669] it is 1 to 1000 µM.
Next, `COC(=O)N1c2ccc3c(nc(C(C)Cc4cnn(C)c4)n3C3CCC(C(=O)O)CC3)c2CC[C@@H]1C` (stereo partly shown) [Example 671]: 1 to 1000 µM.
In the case of `COC(=O)N1c2ccc3c(nc(C(c4ccc(OC)c(F)c4)C(C)C)n3C3CCC(C(=O)O)CC3)c2CC[C@@H]1C` (stereo partly shown) [Example 673], the half-maximal inhibitory concentration (IC50) was in the range of 1 to 1000 µM.
The figure for `COC(=O)N1c2ccc3c(nc(Cc4ccc(F)cc4)n3[C@@H]3CCC[C@@H](C(=O)O)C3)c2CC[C@@H]1C` [Example 675] is 1 to 1000 µM.
As for `COC(=O)N1c2ccc3c(nc(CC(C(=O)O)c4cccc(C(F)F)c4)n3C3CCCOC3)c2CC[C@@H]1C` (stereo partly shown) [Example 676], the IC50 fell in the range of 1 to 1000 µM.
The figure for `COC(=O)N1c2ccc3c(nc(CC(C(=O)O)c4ccccc4)n3-c3ccc(C#N)cc3)c2CC[C@@H]1C` (stereo partly shown) [Example 680] is 1 to 1000 µM; for `COC(=O)N1c2ccc3c(nc(N(C)c4ccc(C#N)cc4)n3[C@@H]3CCC[C@@H](C(=O)O)C3)c2CC[C@@H]1C` [Example 681] it is 1 to 1000 µM; for `COC(=O)N1c2ccc3c(nc(Cc4cc(C(F)(F)F)cnn4)n3[C@@H]3CCC[C@@H](C(=O)O)C3)c2CC[C@@H]1C` [Example 687] it is 1 to 1000 µM.
The figure for `COC(=O)N1c2ccc3c(nc(CN4CCC5(CC5)CC4=O)n3[C@@H]3CCC[C@@H](C(=O)O)C3)c2CC[C@@H]1C` [Example 688] is 1 to 1000 µM.
Next, `COC(=O)N1c2ccc3c(nc(N(C)c4ccc(Cl)cc4)n3[C@H]3CC[C@H](C(=O)O)CC3)c2CC[C@@H]1C` [Example 691]: 1 to 1000 µM.
For `COC(=O)N1c2ccc3c(nc(COC4CCCCC4)n3[C@H]3CC[C@H](C(=O)O)CC3)c2CC[C@@H]1C` [Example 692], the IC50 was in the range of 1 to 1000 µM.
Regarding `COC(=O)N1c2ccc3c(nc(Cc4cccc(OC5CC5)n4)n3[C@@H]3CCC[C@@H](C(=O)O)C3)c2CC[C@@H]1C` [Example 695], the IC50 fell in the range of 1 to 1000 µM.
The figure for `COC(=O)N1c2ccc3c(nc(CN4CCC(C)(C)CC4=O)n3[C@@H]3CCC[C@@H](C(=O)O)C3)c2CC[C@@H]1C` [Example 696] is 1 to 1000 µM; for `COC(=O)N1c2ccc3c(nc(CC(C(=O)O)c4ccccc4)n3-c3cccc(C#N)c3)c2CC[C@@H]1C` (stereo partly shown) [Example 698] it is 1 to 1000 µM.
Next, `COC(=O)N1c2ccc3c(nc(C(O)C4CCC(F)(F)CC4)n3C3CCCC(C(=O)O)C3)c2CC[C@@H]1C` (stereo partly shown) [Example 699]: 1 to 1000 µM; `COC(=O)N1c2ccc3c(nc(CC(C(=O)O)c4ccc(C)cc4)n3C3COCC(F)(F)C3)c2CC[C@@H]1C` (stereo partly shown) [Example 700]: 1 to 1000 µM; `COC(=O)N1c2ccc3c(nc(COC4CCCCC4)n3[C@@H]3CCC[C@@H](C(=O)O)C3)c2CC[C@@H]1C` [Example 702]: 1 to 1000 µM.
Next, `COC(=O)N1c2ccc3c(nc(C4(c5cncc(C)n5)CC4)n3[C@@H]3CCC[C@@H](C(=O)O)C3)c2CC[C@@H]1C` [Example 704]: 1 to 1000 µM; `COC(=O)N1c2ccc3c(nc(Cc4ccccc4C#N)n3[C@H]3CC[C@H](C(=O)O)CC3)c2CC[C@@H]1C` [Example 706]: 1 to 1000 µM; `COC(=O)N1c2ccc3c(nc(Cc4cccc(C#N)c4)n3[C@H]3CC[C@H](C(=O)O)CC3)c2CC[C@@H]1C` [Example 707]: 1 to 1000 µM.
On to `COC(=O)N1c2ccc3c(nc(C(O)c4ccccc4)n3C3CCC(C(=O)O)CC3)c2CC[C@@H]1C` (stereo partly shown) [Example 708], for which the IC50 was in the range of 1 to 1000 µM.
Next, `COC(=O)N1c2ccc3c(nc(C(C)Cn4cc(Cl)cn4)n3C3CCS(=O)(=O)C3)c2CC[C@@H]1C` (stereo partly shown) [Example 709]: 1 to 1000 µM.
Next, `COC(=O)N1c2ccc3c(nc(C4(Cn5cccn5)CC4)n3[C@H]3CC[C@H](C(=O)O)CC3)c2CC[C@@H]1C` [Example 710]: 1 to 1000 µM; `COC(=O)N1c2ccc3c(nc(COC4CCCC4)n3[C@@H]3CCC[C@@H](C(=O)O)C3)c2CC[C@@H]1C` [Example 711]: 1 to 1000 µM; `COC(=O)N1c2ccc3c(nc(C(O)CC4CCC(F)(F)CC4)n3C3CCCC(C(=O)O)C3)c2CC[C@@H]1C` (stereo partly shown) [Example 712]: 1 to 1000 µM.
On to `COC(=O)N1c2ccc3c(nc(Cn4cc(C(C)C)cn4)n3[C@H]3CC[C@H](C(=O)O)CC3)c2CC[C@@H]1C` [Example 714], for which the IC50 lay in the range of 1 to 1000 µM.
The figure for `COC(=O)N1c2ccc3c(nc(C(NC(C)=O)c4ccccc4)n3C3CCC(C(=O)O)CC3)c2CC[C@@H]1C` (stereo partly shown) [Example 717] is 1 to 1000 µM; for `COC(=O)N1c2ccc3c(nc(Cc4cccc(C)c4)n3[C@@H]3CCC[C@@H](C(=O)O)C3)c2CC[C@@H]1C` [Example 718] it is 1 to 1000 µM; for `COC(=O)N1c2ccc3c(nc(C(C)Cc4ccc(F)c(F)c4)n3C3CCCC(C(=O)O)C3)c2CC[C@@H]1C` (stereo partly shown) [Example 720] it is 1 to 1000 µM.
Take `COC(=O)N1c2ccc3c(nc(C[C@H]4CC[C@H](OC)CC4)n3[C@@H]3CCC[C@@H](C(=O)O)C3)c2CC[C@@H]1C` [Example 723]: the IC50 lay within 1 to 1000 µM.
Next, `COC(=O)N1c2ccc3c(nc(C(C)OC4CCOCC4)n3C3CCC(C(=O)O)CC3)c2CC[C@@H]1C` (stereo partly shown) [Example 724]: 1 to 1000 µM.
Regarding `COC(=O)N1c2ccc3c(nc(C(c4ccccc4)[S+](C)[O-])n3C3CCC(C(=O)O)CC3)c2CC[C@@H]1C` (stereo partly shown) [Example 725], the IC50 was in the range of 1 to 1000 µM.
The figure for `COC(=O)N1c2ccc3c(nc(CC4CCC(C#N)CC4)n3C3CCCC(C(=O)O)C3)c2CC[C@@H]1C` (stereo partly shown) [Example 726] is 1 to 1000 µM.
